Measurements published in US9137998B2, “Pesticidal compositions and related methods” (DOW AGROSCIENCES LLC, priority 2013, dated 2015).

How the values were obtained:
[1] = tested on: Green Peach Aphid (Myzus persicae) (GPA) (MYZUPE); assay: Bioassay for Green Peach Aphid (GPA), foliar spray on cabbage seedlings; assay type: in vivo; settings: 200 ppm foliar spray, graded after three days, Abbott corrected % control; for mortality at 200 ppm: Myzus persicae, 72 h, read-out: % Control (or Mortality) rating, GPA
Procedure: Cabbage seedlings grown in 3-inch pots, with 2-3 small (3-5 cm) true leaves, were used as test substrate. The seedlings were infested with 20-50 GPA (wingless adult and nymph stages) one day prior to chemical application. Four pots with individual seedlings were used for each treatment. Test compounds (2 mg) were dissolved in 2 mL of acetone/methanol (1:1) solvent, forming stock solutions of 1000 ppm test compound. The stock solutions were diluted 5× with 0.025% Tween 20 in H2O to obtain the solution at 200 ppm test compound. A hand-held aspirator-type sprayer was used for spraying a solution to both sides of […] leaves until runoff. Reference plants (solvent check) were sprayed with the diluent only containing 20% by volume of acetone/methanol (1:1) solvent. Treated plants were held in a holding room for three days at approximately 25° C. and ambient relative humidity (RH) prior to grading. Evaluation was conducted by counting the number of live aphids per plant under a microscope. Percent control was measured by using Abbott's correction formula (W. S. Abbott, “A Method of Computing the Effectiveness of an Insecticide” J. Econ. Entomol. 18 (1925), pp. 265-267) as follows. Corrected % Control=100*(X−Y)/X
X=No. of live aphids on solvent check plants and
Y=No. of live aphids on treated plants
Biological Data for Green Peach Aphid (GPA) (MYZUPE) and Sweetpotato Whitefly-crawler (WF) (BEMITA)” (See Table Section).

[2] = tested on: Sweetpotato Whitefly-Crawler (Bemisia tabaci) (WF) (BEMITA); assay: Insecticidal test for Sweetpotato Whitefly-crawler (WF) in foliar spray assay on cotton plants; assay type: in vivo; settings: 200 ppm foliar spray, graded after 9 days, Abbott corrected % control; for mortality at 200 ppm: Bemisia tabaci, 216 h, read-out: % Control (or Mortality) rating, WF
Procedure: Cotton plants (Gossypium hirsutum) grown in 3-inch pots, with 1 small (4-5 cm) true leaves, were used as test substrate. The plants were infested with 200-400 whitefly eggs 4-5 days prior to chemical application. Four pots with individual plants were used for each treatment. Test compounds (2 mg) were dissolved in 1 mL of acetone solvent, forming stock solutions of 2000 ppm test compound. The stock solutions were diluted 10× with 0.025% Tween 20 in H2O (diluents) to obtain the solution at 200 ppm test compound. A hand-held aspirator-type sprayer was used for spraying a solution to both sides of cotton leaves until runoff. Reference plants (solvent check) were sprayed with the diluent only containing 10% by volume of acetone solvent. Treated plants were held in a holding room for 9 days at approximately 25° C. and ambient relative humidity (RH) prior to grading. Evaluation was conducted by counting the number of live 3-4 nymph stage per plant under a microscope. Percent control was measured by using Abbott's correction formula (W. S. Abbott, “A Method of Computing the Effectiveness of an Insecticide” J. Econ. Entomol. 18 (1925), pp. 265-26′7) as follows. Corrected % Control=100*(X−Y)/X
X=No. of live nymphs on solvent check plants and
Y=No. of live nymphs on treated plants. […]

Molecule	% Control (or Mortality) rating, GPA [1]	% Control (or Mortality) rating, WF [2]	mortality at 200 ppm [1]	mortality at 200 ppm [2]
2-Methyl-N-(4-methyl-2-(pyridin-3-yl)thiazol-5-yl)-3-(methylsulfinyl)-N-(prop-2-yn-1-yl) propanamide [Compound P5]	A (80-100)	A (80-100)		
4-Chloro-2-(5-fluoropyridin-3-yl)-N-(prop-2-yn-1-yl)thiazol-5-amine hydrochloride [CA1]	B (More than 0-Less than 80)	B (More than 0-Less than 80)		
4-Chloro-N-(prop-2-yn-1-yl)-2-(pyrimidin-5-yl)thiazol-5-amine hydrochloride [CA2]	B (More than 0-Less than 80)	B (More than 0-Less than 80)		
C#CCN(C(=O)OC(C)(C)C)c1sc(Cl)nc1Cl [CA3, tert-butyl (2,4-dichlorothiazol-5-yl)(prop-2-yn-1-yl)carbamate]			< 0%	
C#CC(C)N(C(=O)OC(C)(C)C)c1sc(Br)nc1C (stereo not shown) [CA5, tert-butyl (2-bromo-4-methylthiazol-5-yl)(but-3-yn-2-yl)carbamate]			0 to 80%	0 to 80%
CC#CCN(C(=O)OC(C)(C)C)c1sc(Br)nc1C [CA6, tert-Butyl (2-bromo-4-methylthiazol-5-yl)(but-2-yn-1-yl)carbamate]			0 to 80%	< 0%
C#CCN(C(=O)OC(C)(C)C)c1sc(-c2cccnc2)nc1C [CA7, tert-Butyl (4-methyl-2-(pyridin-3-yl)thiazol-5-yl)(prop-2-yn-1-yl) carbamate]			80 to 100%	80 to 100%
C#CCN(C(=O)OC(C)(C)C)c1sc(-c2cncc(F)c2)nc1C [CA8, tert-Butyl (2-(5-fluoropyridin-3-yl)-4-methylthiazol-5-yl)(prop-2-yn-1-yl) carbamate]			0 to 80%	80 to 100%
C#CCN(C(=O)OC(C)(C)C)c1sc(-c2cncc(F)c2)nc1Cl [CA9, tert-Butyl (4-chloro-2-(5-fluoropyridin-3-yl)thiazol-5-yl)(prop-2-yn-1-yl) carbamate]			80 to 100%	80 to 100%
C#CC(C)N(C(=O)OC(C)(C)C)c1sc(-c2cccnc2)nc1C (stereo not shown) [CA12, tert-Butyl but-3-yn-2-yl(4-methyl-2-(pyridin-3-yl)thiazol-5-yl)carbamate]			80 to 100%	80 to 100%
C#CCNc1sc(-c2cccnc2)nc1C [CA14, 4-Methyl-N-(prop-2-yn-1-yl)-2-(pyridin-3-yl)thiazol-5-amine]			0 to 80%	0 to 80%
C#CCN(C(=O)OC(C)(C)C)c1sc(-c2cccnc2)nc1Cl [Compound C3, tert-butyl (4-chloro-2-(pyridin-3-yl)thiazol-5-yl)(prop-2-yn-1-yl)carbamate]			80 to 100%	80 to 100%
C#CCN(C(=O)C1CC1)c1sc(-c2cccnc2)nc1Cl [Compound F2, N-(4-Chloro-2-(pyridin-3-yl)thiazol-5-yl)-N-(prop-2-yn-1-yl)cyclopropane carboxamide]			80 to 100%	80 to 100%
C#CCN(C(=O)CC(SC)C(F)(F)F)c1sc(-c2cccnc2)nc1Cl (stereo not shown) [Compound F3, N-(4-Chloro-2-(pyridin-3-yl)thiazol-5-yl)-4,4,4-trifluoro-3-(methylthio)-N-(prop-2-yn-1-yl) butanamide]			80 to 100%	80 to 100%
C#CCN(C(=O)CSC)c1sc(-c2cccnc2)nc1Cl [Compound F4, N-(4-Chloro-2-(pyridin-3-yl)thiazol-5-yl)-2-(methylthio)-N-(prop-2-yn-1-yl)acetamide]			80 to 100%	80 to 100%
C#CCN(C(=O)C1CC1(F)F)c1sc(-c2cccnc2)nc1Cl (stereo not shown) [Compound F5, N-(4-chloro-2-(pyridin-3-yl)thiazol-5-yl)-2,2-difluoro-N-(prop-2-yn-1-yl)cyclopropanecarboxamide]			80 to 100%	80 to 100%
C#CCN(C(=O)C(C)SC)c1sc(-c2cccnc2)nc1Cl (stereo not shown) [Compound F6, N-(4-chloro-2-(pyridin-3-yl)thiazol-5-yl)-2-(methylthio)-N-(prop-2-yn-1-yl)propanamide]			80 to 100%	80 to 100%
C#CCN(C(=O)CCSC)c1sc(-c2cccnc2)nc1Cl [Compound F7, N-(4-chloro-2-(pyridin-3-yl)thiazol-5-yl)-3-(methylthio)-N-(prop-2-yn-1-yl)propanamide]			80 to 100%	80 to 100%
C#CCN(C(=O)CCSCC1CC1(F)F)c1sc(-c2cccnc2)nc1Cl (stereo not shown) [Compound F8, N-(4-Chloro-2-(pyridin-3-yl)thiazol-5-yl)-3--(((2,2-difluorocyclopropyl)methyl)thio)-N-(prop-2-yn-1-yl)propanamide]			80 to 100%	80 to 100%
C#CCN(C(=O)C(C)CSC)c1sc(-c2cccnc2)nc1Cl (stereo not shown) [Compound F9, N-(4-chloro-2-(pyridin-3-yl)thiazol-5-yl)-2-methyl-3-(methylthio)-N-(prop-2-yn-1-yl)propanamide]			80 to 100%	80 to 100%
C#CCN(C(=O)CCSC)c1sc(-c2cccnc2)nc1C [Compound P1, N-(4-Methyl-2-(pyridin-3-yl)thiazol-5-yl)-3-(methylthio)-N-(prop-2-yn-1-yl)propanamide]			80 to 100%	80 to 100%
C#CCN(C(=O)C(C)CSC)c1sc(-c2cccnc2)nc1C (stereo not shown) [Compound P2, 2-Methyl-N-(4-methyl-2-(pyridin-3-yl)thiazol-5-yl)-3-(methylthio)-N-(prop-2-yn-1-yl) propanamide]			80 to 100%	80 to 100%
C#CCN(C(=O)CC[S+](C)[O-])c1sc(-c2cccnc2)nc1C (stereo not shown) [Compound P3, N-(4-Methyl-2-(pyridin-3-yl)thiazol-5-yl)-3-(methylsulfinyl)-N-(prop-2-yn-1-yl)propanamide]			80 to 100%	80 to 100%
C#CCN(C(=O)CCS(C)(=O)=O)c1sc(-c2cccnc2)nc1C [Compound P4, N-(4-Methyl-2-(pyridin-3-yl)thiazol-5-yl)-3-(methylsulfonyl)-N-(prop-2-yn-1-yl)propanamide]			80 to 100%	80 to 100%
C#CCN(C(=O)CCSCCC(F)(F)F)c1sc(-c2cccnc2)nc1C [Compound P6, N-(4-Methyl-2-(pyridin-3-yl)thiazol-5-yl)-N-(prop-2-yn-1-yl)-3-((3,3,3-trifluoropropyl)thio) propanamide]				80 to 100%
C#CCN(C(=O)CC[S+]([O-])CCC(F)(F)F)c1sc(-c2cccnc2)nc1C (stereo not shown) [Compound P7, N-(4-Methyl-2-(pyridin-3-yl)thiazol-5-yl)-N-(prop-2-yn-1-yl)-3-((3,3,3-trifluoropropyl)sulfinyl) propanamide]			80 to 100%	80 to 100%
C#CCN(C(=O)CCS(=O)(=O)CCC(F)(F)F)c1sc(-c2cccnc2)nc1C [Compound P8, N-(4-Methyl-2-(pyridin-3-yl)thiazol-5-yl)-N-(prop-2-yn-1-yl)-3-((3,3,3-trifluoropropyl)sulfonyl) propanamide]			80 to 100%	80 to 100%
